Source: US20090169472A1, “METHODS AND COMPOSITIONS FOR TREATING IMMUNE DISORDERS” (CANCER RESEARCH TECHNOLOGY LTD., priority 2005, published 2009)
Oligonucleotides are written 5' to 3', each unit as a sugar letter and its base; * is a phosphorothioate linkage, no mark a phosphodiester; rarer units and linkages stand in square brackets, end groups in braces. Plain capitals give the bases only. r = 2'-OH (RNA)

Legend:
[1] = system: human plasmacytoid DC (pDC); test: Human pDC activation assay (IFNα and IL-6 in supernatant by sandwich ELISA); format: cell-based; conditions: for IFN-α production by human pDC: different doses of polyUs 21-mer, polyAs 21-mer 1 μM, overnight culture
Experimental: Human pDC activation assays. R848 and RNA9.2DR complexed to LyoVec were from Invivogen. RNA oligonucleotides were purchased from Sigma Proligo. Human PMBCs were purified from normal human peripheral blood by Ficoll-Hypaque centrifugation. BDCA4^+ plasmacytoid DC were purified from total PBMC by positive selection using CD304^+ Microbeads and MiniMacs from MiltenyiBiotec. Oligonucleotides/PEI complexes, prepared as described above, were added to 1-2×10^5 pDC seeded in duplicate in 96-well-plates. Cells were cultured overnight in a final volume of 200 μl, supernatants were collected after 18-20 hr of culture and levels of IFNα and IL-6 were determined by sandwich ELISA.

Flt3L-DC = Flt3L-DC activation assay (cytokines in supernatant by sandwich ELISA); format: cell-based, mouse; conditions: for ability to stimulate TLR7: summary statement on oligonucleotides of Table 1; for IFNα induction by Flt3L-DC compared with polyUs-21 (reference TLR7 ligand): comparison in words
Experimental: Flt3L-DC were generated from bone marrow cell suspensions in RPMI 1640 medium containing 10% fetal calf serum, 2 mM glutamine, 100 units/ml penicillin, 100 μg/ml streptomycin, 50 μM 2-mercaptoethanol and 50 ng/ml murine Flt3L (R&D systems) and were used at day 10 or 11 of cultures.
For stimulation with oligonucleotides, 2×10^5 Flt3L-DC were seeded in triplicate in 96-well-plates. Oligonucleotides were added and cells were cultured overnight in a final volume of 200 μl. Controls contained medium alone, 0.5 μg/ml CpG 1668, 100 mM loxoribine or 1 μM R848.
For stimulation with oligonucleotides other than CpG 1668, different doses of each test oligonucleotides were diluted in 150 mM NaCl solution and mixed with an equal volume of 150 mM NaCl solution+/−polytheylenimine (PEI; 3 μl/ml PEI were used irrespective of the RNA dose). After 15 min incubation at room temperature, oligonucleotide/PEI complexes were added to cells. Supernatants were collected after 18-20 hr of culture and levels of IFNα, IL-6 and IL-12 p40 were determined by sandwich ELISA.

[2] = oligonucleotide/PEI complexes, C57BL/6 Flt3L-DC, overnight culture, result in words
[3] = free oligonucleotide given to culture without PEI
[4] = polyUs 21-mer 10 μM as PEI complexes, RNA9.2DR 1 μM as LyoVec complexes, R848 1 μM

polyAs-21: polyA RNA 21-mer, phosphorothioate bonds, SEQ ID NO 26 (rA*rA*rA*rA*rA*rA*rA*rA*rA*rA*rA*rA*rA*rA*rA*rA*rA*rA*rA*rA*rA)
IFN-α production by human pDC ([1]; PEI complexes): failed to induce IFNα
IFNα induction by Flt3L-DC (Flt3L-DC; [2]): failed to induce IFNα

polyUo-15: polyU RNA 15-mer, phosphodiester bonds, SEQ ID NO 3 (UUUUUUUUUUUUUUU; unmodified RNA)
fold less potent in inducing IFNα by Flt3L-DC than the 21-mer (polyUo-21) (Flt3L-DC; phosphodiester polyU RNA, PEI complexes, shift in the dose response): approximately 20 ×
ability to stimulate TLR7 (Flt3L-DC): capable of stimulating TLR7

polyUo-21: polyU RNA 21-mer, phosphodiester bonds, SEQ ID NO 2 (UUUUUUUUUUUUUUUUUUUUU; unmodified RNA)
IFNα induction by Flt3L-DC compared with polyUs-21 (reference TLR7 ligand) (Flt3L-DC; PEI complexes): induced similar IFNα
IFNα induction by Flt3L-DC (Flt3L-DC; [3]): failed to induce IFNα
IFNα induction by Flt3L-DC (Flt3L-DC; [2]): induced IFNα by Flt3L-DC in a dose dependent manner
ability to stimulate TLR7 (Flt3L-DC): capable of stimulating TLR7

polyUs-15: polyU RNA 15-mer, phosphorothioate bonds, SEQ ID NO 6 (rU*rU*rU*rU*rU*rU*rU*rU*rU*rU*rU*rU*rU*rU*rU)
IFNα induction by Flt3L-DC compared with polyUs-21 (reference TLR7 ligand) (Flt3L-DC; PEI complexes): indistinguishable from the response obtained with the 21-mer
ability to stimulate TLR7 (Flt3L-DC): capable of stimulating TLR7

polyUs-21: polyU RNA 21-mer, phosphorothioate bonds, SEQ ID NO 5 (rU*rU*rU*rU*rU*rU*rU*rU*rU*rU*rU*rU*rU*rU*rU*rU*rU*rU*rU*rU*rU)
IFN-α production by human pDC ([1]; PEI complexes): induced IFN-α production by human pDC in a dose-dependent manner
optimal dose of ssRNA for IFN-α induction ([1]; human pDC, PEI complexes): 3 µg/mL
IFNα production by human pDC, comparison of TLR7/8 agonists [1, 4]: induced equivalent levels of IFNα production by human pDC
IL-6 induction by human pDC [1, 4]: failed to induce IL-6 secretion by pDC
potency in inducing IFNα compared with RNA40 (Flt3L-DC; PEI complexes): much more potent than RNA40
IFNα levels, RNA oligonucleotide polyUs-21 compared with DNA oligonucleotide polydUs-21 (Flt3L-DC; PEI complexes, all doses tested): induced higher levels of IFNα at all doses tested
IFNα induction by Flt3L-DC (Flt3L-DC; [3]): induced IFNα
fold more potent in inducing IFNα by Flt3L-DC than R848 and loxoribine (Flt3L-DC; ligands at concentrations of maximum cytokine induction: polyUs-21 1 μg/ml + PEI, CpG 1668 0.5 μg/ml, loxoribine 100 mM, R848 10 μg/ml): approximately 30 times
optimal dose of ssRNA for IFNα induction (Flt3L-DC; mouse Flt3L, PEI complexes): 3 µg/mL
IFNα induction by Flt3L-DC (Flt3L-DC; [2]): induced IFNα by Flt3L-DC in a dose dependent manner
ability to stimulate TLR7 (Flt3L-DC): capable of stimulating TLR7

polydUo-21: polyU DNA 21-mer (dU), phosphodiester bonds, SEQ ID NO 8 (UUUUUUUUUUUUUUUUUUUUU; listed as RNA, chemistry not fully specified)
potency in inducing IFNα compared with polyUo-21 (Flt3L-DC; at higher doses, PEI complexes): even more potent
potency in stimulating an IFNα response compared with polyUo-21 (Flt3L-DC; at lower doses, PEI complexes): less potent
IFNα induction by Flt3L-DC (Flt3L-DC; [2]): produced IFNα
ability to stimulate TLR7 (Flt3L-DC): capable of stimulating TLR7

polydUs-21: polyU DNA 21-mer (dU), phosphorothioate bonds, SEQ ID NO 9 (UUUUUUUUUUUUUUUUUUUUU; DNA, all phosphorothioate, T or U not given here)
ability to stimulate TLR7 (Flt3L-DC): capable of stimulating TLR7
